Measured values as given in PMC4626215, “Esculentin-2CHa-Related Peptides Modulate Islet Cell Function and Improve Glucose Tolerance in Mice with Diet-Induced Obesity and Insulin Resistance” (PLoS ONE, 2015).
Bridges are numbered along the chain shown (N, C = ends). Where no end group is shown, it is not given here.

Legend:
BRIN-BD11 cells [1] = details: 3 μM peptide (highest concentration); mean ± SEM, n = 8
Method: In vitro insulin-releasing effects of esculentin-2CHa and its analogues were assessed using BRIN-BD11 rat clonal β-cells and mouse islets. In the first set of experiments, BRIN-BD11 cells were incubated with the peptides in the concentration range (1 pM– 3 μM) in Krebs-Ringer bicarbonate buffer containing 5.6 mM glucose for 20 min at 37°C as previously described. Insulin-releasing effects were also assessed using buffer supplemented with 1.4 and 16.7mm glucose concentrations and with established modulators of insulin release as previously described. In a second set of experiments, islets from NIH Swiss mice, isolated by collagenase digestion, were incubated with a range of concentrations of esculentin-2CHa or its analogues (0.1 nM– 1 μM) for 1 h in Krebs-Ringer bicarbonate (KRB) buffer supplemented with 1.4, 5.6 or 16.7 mM glucose. Following test incubations, aliquots of buffer were retrieved and stored at -20°C for measurement of insulin by radioimmunoassay. In the experiments with BRIN-BD11 cells, the release of lactate dehydrogenase (LDH) was measured as an indicator of the integrity of the plasma membrane using commercially available CytoTox 96 non-radioactive cytotoxicity assay kit (Promega, Madison, WI, USA) according to the manufacturer’s recommended protocol.

BRIN-BD11 cells [2] = test: Membrane potential, FLIPR membrane assay kit; type: cell-based, rat; details: for Membrane potential (AUC, x 10^3 RFU): 1 μM peptide, 5 min, mean ± SEM, n = 8
Method: (§1) Effects of esculentin-2CHa (1 μM) and its analogues on membrane potential and [Ca^2+]i in BRIN-BD11 cells over a period of 5 min were assessed using commercially available FLIPR membrane or calcium assay kit (Molecular Devices, USA) as previously described. Data were captured using a Flexstation 3 microplate reader equipped with automatic fluid transfer unit (Molecular Devices, USA).

[3] = system: BRIN-BD11 rat clonal β-cells; test: In vitro insulin release from BRIN-BD11 cells; type: cell-based; details: 5.6 mM glucose; for BRIN-BD11 cells (Threshold concentration): minimum concentration producing a significant increase in rate of insulin release, 37°C
Method: (§2) In vitro insulin-releasing effects of esculentin-2CHa and its analogues were assessed using BRIN-BD11 rat clonal β-cells and mouse islets. In the first set of experiments, BRIN-BD11 cells were incubated with the peptides in the concentration range (1 pM– 3 μM) in Krebs-Ringer bicarbonate buffer containing 5.6 mM glucose for 20 min at 37°C as previously described [15–17]. Insulin-releasing effects were also assessed using buffer supplemented with 1.4 and 16.7mm glucose concentrations and with established modulators of insulin release as previously described [15–17]. In a second set of experiments, islets from NIH Swiss mice, isolated by collagenase digestion [18, 19], were incubated with a range of concentrations of esculentin-2CHa or its analogues (0.1 nM– 1 μM) for 1 h in Krebs-Ringer bicarbonate (KRB) buffer supplemented with 1.4, 5.6 or 16.7 mM glucose. Following test incubations, aliquots of buffer were retrieved and stored at -20°C for measurement of insulin by radioimmunoassay [20].

high fat fed mice = test: Acute in vivo glucose tolerance and insulin release; set-up: species or system mouse; details: for Plasma glucose (AUC) / Plasma insulin (AUC): ip glucose 18 mmol/kg with peptide 75 nmol/kg, AUC 0-60 min, mean ± SEM, n = 8
Method: Male National Institutes of Health (NIH) Swiss mice (Harlan Ltd, UK) were housed separately in an air-conditioned room (22 ± 2°C) with relative humidity of 51 ± 5% and a 12-hour light: 12-hour dark cycle and maintained on a high fat diet containing 45% fat, 20% protein and 35% carbohydrate (total energy 19.5 kJ/g, Dietex International Ltd, Witham, UK) for 120 days. Mice maintained on standard rodent diet containing 10% fat, 30% protein and 60% carbohydrates (total energy 12.99 kJ/g) were used as controls. Both groups of animals were allowed food and water ad libitum. All animal experiments were carried out in accordance with the UK Animals (Scientific Procedures) Act 1986 and EU Directive 2010/63EU for animal experiments. The study was approved by University of Ulster Research Ethics Committee.
For acute in vivo studies, overnight fasted, high fat fed mice (n = 8) received an intraperitoneal injection of glucose alone (18 mmol/kg body weight) or in combination with esculentin-2CHa or its analogues (75 nmol/kg body weight). This peptide dose was selected on the basis of a pilot study that examined acute effects of different doses of esculentin-2CHa on glucose tolerance in lean mice. Blood samples were collected as described previously before injection and at times indicated in the Figures for the measurement of plasma glucose and insulin concentrations.
Pancreatic tissues were homogenized in 20 mM Tris-HCl, 150 mM NaCl, 1 mM EDTA, 1 mM EGTA and 0.5% Triton X 100; pH 7.5 as previously described. Blood samples (approximately 150 μl), collected from the cut tip of the tail vein of unanesthetized mice at intervals indicated in the Figures were used for blood glucose measurements and determination of plasma insulin as previously described. Blood glucose was measured using a hand-held Ascencia Contour meter (Bayer Healthcare, UK). Plasma and pancreatic insulin were determined by radioimmunoassay. Plasma and pancreatic glucagon contents were determined by ELISA using commercially available kit (Millipore, MA, USA). Plasma creatinine, alanine transaminase (ALT), aspartic acid transaminase (AST) and alkaline phosphatase (ALP) were measured using commercially available kits (Randox Laboratories, UK) as indicators of renal and liver function. Plasma triglyceride and cholesterol concentrations were measured using an automated clinical chemistry analyser (I-lab 650, and reagents purchased from Instrumentation Laboratory (Warrington, UK). The assay kit for cholesterol was obtained from Randox Laboratories (Antrim, UK). Estimation of LDL cholesterol concentrations was achieved using the Friedewald equation as described previously.

[4] = system: islets from NIH Swiss mice; test: In vitro insulin release from isolated mouse islets; type: cell-based; details: 16.7 mM glucose; for Stimulation of insulin release from islets, fold of basal: 1 μM, 1 h; for Mouse islets (Threshold concentration): insulin release, 1 h incubation, n = 8
Method: as §2

BRIN-BD11 cells [5] = test: Intracellular calcium ([Ca2+]i), FLIPR calcium assay kit; type: cell-based, rat; details: for Intracellular Ca2+ (AUC, x 10^2 RFU): 1 μM peptide, 5 min, mean ± SEM, n = 8
Method: as §1

[6] = peptide 75 nmol/kg ip with glucose 18 mmol/kg

GFSSIFRGVAKFASKGLGKDLAKLGVDLVACKISKQC (disulfide 31-37 (inferred)) [Esculentin-2CHa, frog skin host-defense peptide first isolated from Lithobates chiricahuensis; synthetic]
LDH release (% of control) (BRIN-BD11 cells [1]): 102.7±1.1 % of control
Membrane potential (AUC, x 10^3 RFU) (BRIN-BD11 cells [2]): 8.01±0.28 x 10^3 RFU
Insulin-secretory response, fold of basal ([3]; 3 μM peptide, 20 min): 10.3 fold
Plasma glucose (AUC) (high fat fed mice): 463.99 ± 46.95 mmol·min/L
Plasma insulin (AUC) (high fat fed mice): 165.05 ± 16.89 ng·min/mL
Decrease of plasma glucose AUC versus glucose alone (high fat fed mice; [6]): 33%
Increase in integrated plasma insulin response versus glucose alone (high fat fed mice; [6]): 48%
Stimulation of insulin release from islets, fold of basal [4]: 2.7 fold
Mouse islets (Threshold concentration) [4]: 10 nM
Intracellular Ca2+ (AUC, x 10^2 RFU) (BRIN-BD11 cells [5]): 6.44±0.47 x 10^2 RFU

GFSSIFRGVAKFASKGLGKDLAKKGVDLVACKISKQC (disulfide 31-37 (inferred)) [[L24K]Esculentin-2CHa, substituted analogue of esculentin-2CHa with increased cationicity]
LDH release (% of control) (BRIN-BD11 cells [1]): 101.3±3.1 % of control
Membrane potential (AUC, x 10^3 RFU) (BRIN-BD11 cells [2]): 7.87±0.19 x 10^3 RFU
BRIN-BD11 cells (Threshold concentration) ([3]; 20 min, n = 8): 10 pM
Plasma glucose (AUC) (high fat fed mice): 662.25±32.14^ΔΔ mmol/l.min
Plasma insulin (AUC) (high fat fed mice): 129.89±11.02^Δ ng/ml.min
Stimulation of insulin release from islets, fold of basal [4]: 2.3 fold
Mouse islets (Threshold concentration) [4]: 10 nM
Intracellular Ca2+ (AUC, x 10^2 RFU) (BRIN-BD11 cells [5]): 6.28±0.62 x 10^2 RFU

GFSSIFRGVAKFASKGLGKDLAKLGVDLVAKKISKQC [[C31K]Esculentin-2CHa, substituted analogue of esculentin-2CHa with increased cationicity]
LDH release (% of control) (BRIN-BD11 cells [1]): 100.2±2.8 % of control
Membrane potential (AUC, x 10^3 RFU) (BRIN-BD11 cells [2]): 7.92±0.14 x 10^3 RFU
Stimulatory effect on insulin release at 3 μM compared with native peptide ([3]; 3 μM): greater
BRIN-BD11 cells (Threshold concentration) ([3]; 20 min, n = 8): 10 pM
Plasma glucose (AUC) (high fat fed mice): 410.72 ± 29.25 mmol·min/L
Plasma insulin (AUC) (high fat fed mice): 240.32±31.04 ^,ΔΔΔ ng/ml.min
Decrease of plasma glucose AUC versus glucose alone (high fat fed mice; [6]): 40%
Stimulation of insulin response relative to that with esculentin-2CHa (high fat fed mice; [6]): 2.4 fold
Stimulation of insulin release from islets, fold of basal [4]: 3.3 fold
Mouse islets (Threshold concentration) [4]: 0.1 nM
Intracellular Ca2+ (AUC, x 10^2 RFU) (BRIN-BD11 cells [5]): 6.32±0.72 x 10^2 RFU

GLP-1: incretin hormone used as positive control for islet insulin release [reference compound]
Stimulation of insulin release from islets, fold of basal [4]: 2.4 fold

GFSSIFRGVAKFASKGLGKDLAKLGVDLVASKISKQS [[C31S,C37S]Esculentin-2CHa, analogue with Cys31 and Cys37 replaced by serine]
LDH release (% of control) (BRIN-BD11 cells [1]): 104.3±3.1 % of control
Membrane potential (AUC, x 10^3 RFU) (BRIN-BD11 cells [2]): 7.96±0.24 x 10^3 RFU
BRIN-BD11 cells (Threshold concentration) ([3]; 20 min, n = 8): 10 pM
Plasma glucose (AUC) (high fat fed mice): 618.65±86.0^ΔΔ mmol/l.min
Plasma insulin (AUC) (high fat fed mice): 122.74±28.65^Δ ng/ml.min
Stimulation of insulin release from islets, fold of basal [4]: 2.6 fold
Mouse islets (Threshold concentration) [4]: 1 nM
Intracellular Ca2+ (AUC, x 10^2 RFU) (BRIN-BD11 cells [5]): 6.55±0.36 x 10^2 RFU

[Cl-].[K+] [KCl, reference compound]
Increase of membrane potential (BRIN-BD11 cells [2]; 30 mM): 5.2 fold

GFSSIFRGVAKFASKGLGKKLAKLGVKLVACKISKQC (disulfide 31-37 (inferred)) [[D20K, D27K]Esculentin-2CHa, analogue with Asp20 and Asp27 replaced by L-Lysine]
LDH release (% of control) (BRIN-BD11 cells [1]): 102.5±2.6 % of control
Membrane potential (AUC, x 10^3 RFU) (BRIN-BD11 cells [2]): 7.85±0.32 x 10^3 RFU
BRIN-BD11 cells (Threshold concentration) ([3]; 20 min, n = 8): 100 pM
Plasma glucose (AUC) (high fat fed mice): 667.78±60.23^ΔΔ mmol/l.min
Plasma insulin (AUC) (high fat fed mice): 122.96±16.76^Δ ng/ml.min
Stimulation of insulin release from islets, fold of basal [4]: 1.7 fold
Mouse islets (Threshold concentration) [4]: 10 nM
Intracellular Ca2+ (AUC, x 10^2 RFU) (BRIN-BD11 cells [5]): 6.10±0.46 x 10^2 RFU

C[C@H](N)C(=O)O [alanine, reference compound]
Increase of insulin secretion, fold of basal ([3]; 10 mM, 20 min, n = 8): 7.3 fold
Increase of intracellular Ca2+ (BRIN-BD11 cells [5]; 10 mM): 4.6 fold

GFSSIFRGVAKFASKGLGKDKAKLGVDLVACKISKQC (disulfide 31-37 (inferred)) [[L21K]Esculentin-2CHa, substituted analogue of esculentin-2CHa with increased cationicity]
LDH release (% of control) (BRIN-BD11 cells [1]): 100.6±2.0 % of control
Membrane potential (AUC, x 10^3 RFU) (BRIN-BD11 cells [2]): 7.78±0.31 x 10^3 RFU
BRIN-BD11 cells (Threshold concentration) ([3]; 20 min, n = 8): 10 pM
Plasma glucose (AUC) (high fat fed mice): 598.68±35.23^ΔΔ mmol/l.min
Plasma insulin (AUC) (high fat fed mice): 131.12±14.25^Δ ng/ml.min
Stimulation of insulin release from islets, fold of basal [4]: 2.6 fold
Mouse islets (Threshold concentration) [4]: 10 nM
Intracellular Ca2+ (AUC, x 10^2 RFU) (BRIN-BD11 cells [5]): 6.14±0.41 x 10^2 RFU
